Experiments:
[1] = Assay of chelate on carboxymethyl (CM) Sephadex column (chelate formation, charge); type: physicochemical
Experimental: Preparation of carboxymethyl sephadex column. To two 10 ml plastic pipets cut off at the 3 ml mark and plugged with glass wool at the bottom add enough slurry to form a 2 ml volume of the CM sephadex. Wash the packed resin with 6 ml of 1 M Tris buffer pH 7.5, and 6 ml of 0.01M Tris buffer pH 7.5. […] Collect the eluants of fractions as follows. Fraction 1.3 ml of 0.01 M Tris buffer pH 7.5 and allow to drain into column. Fraction 2.1 ml of sample (gadolinium-DTPA or gadolinium chloride) and allow to drain into column. Apply 3 ml of 0.01 M Tris buffer pH 7.5 and allow to drain into column. Fraction 3.3 ml of 0.01M Tris buffer pH 7.5 and allow to drain into column. Dry all fractions at 70° C. for 76 hours, dissolve in 1 ml of 1 mM HCl and assay by atomic absorption.
(§1) Preparation of carboxymethyl Sephadex column. To two 10 ml plastic pipets which had been cut off at the 3 ml mark and plugged with glass wool at the bottom, enough slurry was added to form a 2 ml volume of the CM Sephadex. The packed resin was wash with 6 ml of 1 M Tris buffer pH 7.5, and 6 ml of 0.01M Tris buffer pH 7.5. […] Fractions were applied as follows. Fraction 1. Three ml of 0.01 M Tris buffer pH 7.5 and allow to drain into column. Fraction 2. One ml of sample (samarium-DTPA or samarium chloride) and allow to drain into column. Apply 3 ml of 0.01 M Tris buffer pH 7.5 and allow to drain into column. Fraction 3. Three ml of 0.01M Tris buffer pH 7.5 and allow to drain into column. Collect the eluant of fractions 1 through 3. Fraction 4. Column and contents.
as §1, with “were” for “had been”, “washed” for “wash”, “(lanthanum-DTPA” for “(samarium-DTPA”, “lanthanum” for “samarium”
as §1, with “were” for “had been”, “washed” for “wash”, “(Europium-DTPA” for “(samarium-DTPA”, “Europium” for “samarium”
Preparation of carboxymethyl sephadex column. To a 10 ml plastic pipet cut off at the 3 ml mark and plugged with glass wool at the bottom, add enough slurry to form a 2 ml volume of the CM sephadex. Wash the packed resin with 6 ml of 1 M Tris buffer pH 7.5, and 6 ml of 0.01M Tris buffer pH 7.5. […] Apply fractions as follows. Fraction 1. One ml of sample A and allow to drain into column.

[2] = Stability of chelates to autoclaving (CM-Sephadex assay); type: physicochemical; conditions: for % of total / dpm: autoclaved 30 minutes at 121° C.
Experimental: A sample comprising 5 ml of Sm-DTPA, La-DTPA, and Eu-DTPA prepared in Examples 9, 10, and 11 were placed in 10 ml glass bottles, each capped with a grey butyl rubber cap, and the caps were crimped. Samples were autoclaved for 30 minutes at 121° C.
Five ml of each of Sm-DOTA, La-DOTA, and Eu-DOTA prepared in Examples 13, 14, and 15 were placed in 10 ml glass bottles capped with a grey butyl rubber cap and crimped. Samples were autoclaved for 30 minutes at 121° C. Samples were allowed to cool to room temperature and were assayed as described in Examples 25.

[3] = Stability of chelates in rat serum (CM-Sephadex assay, serum binding); conditions: 24 hours in rat serum at room temperature
[4] = Kinetics of blood depletion and urine accumulation of chelates in the rat; type: in vivo; conditions: ^99mTc-DTPA, Gd-DTPA and Sm-DTPA simultaneously administered (Example 30), average of three rats
Experimental: One half ml of Sm-DTPA (0.01 mg/kg), dissolved in saline (pH 7), is injected into the tail vein of three rats. Samples of blood are obtained at 10, 30 and 60 minutes following injection and analyzed for Sm-DTPA by neutron activation. The percent of starting amount of the Sm-DTPA at each time interval is presented in Table 18 (last column on right). Similarly, the accumulation of Sm-DTPA in the rat urine at two times is shown in the last column of Table 18.
One half ml of Technetium-99m-DTPA (1 millicurie), Gd-DTPA (0.05 mg/kg), and Sm-DTPA (0.01 mg/kg) are each dissolved in saline (pH 7), and are injected simultaneously into the tail vein of three rats. Samples of blood are obtained at 10, 30 and 60 minutes following injection and analyzed for ^99mTc-DTPA (gamma counting), Gd-DTPA (T1 relaxation) and Sm-DTPA (neutron activation).
One half ml of Sm-DTPA, La-DTPA and Eu-DTPA (each 0.01 mg/kg), dissolved in saline (pH 7) are injected simultaneously into the tail vein of three rats. Samples of blood are obtained at 10, 30 and 60 minutes following injection and analyzed for each element by neutron activation.
Samples of Sm-DTPA, La-DTPA and Eu-DTPA (0.5 ml; 0.01 mg/kg), each dissolved in saline (pH 7), are injected sequentially at 0, 20, and 40 minutes into the tail vein of three rats. Samples of blood are obtained at 10, 30 and 60 min following each injection and analyzed for each element by neutron activation.

[5] = DOTA chelates, Fraction 1: 1 ml sample diluted 1:10 then 3 ml 0.01M Tris pH 7.5 (eluate)
[6] = DOTA chelates, Fraction 2: further 3 ml 0.01M Tris pH 7.5
[7] = DOTA chelates, Fraction 3: column and contents (retained)
[8] = Fraction 1: sample diluted 1:10 then 2-3 ml 0.01M Tris pH 7.5 (eluate)
[9] = Fraction 2: 3 ml 0.01M Tris pH 7.5
[10] = Fraction 3: column and contents (retained)
[11] = Fraction 1: 3 ml 0.01M Tris pH 7.5 before sample
[12] = Fraction 2: 1 ml sample then 3 ml 0.01M Tris pH 7.5 (eluate)
[13] = Fraction 3: further 3 ml 0.01M Tris pH 7.5
[14] = Fraction 4: column and contents (retained)
[15] = Fraction 1: 0.2 ml sample then 2 ml 0.01M Tris pH 7.5 (eluate)

| Molecule | % eluted from the CM-Sephadex column [1] | % of total [1, 5] | dpm [1, 5] | % of total [1, 6] | dpm [1, 6] | % of total [1, 7] | dpm [1, 7] | % of total [2, 8] | dpm [2, 8] | % of total [2, 9] | dpm [2, 9] | % of total [2, 10] | dpm [2, 10] | % of unchelated ion retained on the column [1] | % of total [1, 11] | dpm [1, 11] | % of total [1, 12] | dpm [1, 12] | % of total [1, 13] | dpm [1, 13] | also measured |
| --- | --- | --- | --- | --- | --- | --- | --- | --- | --- | --- | --- | --- | --- | --- | --- | --- | --- | --- | --- | --- | --- |
| O=C([O-])CN1CCN(CC(=O)[O-])CCN(CC(=O)[O-])CCN(CC(=O)[O-])CC1.[La+3] [La-DOTA] | 100% | 97 % of total | 410040 dpm | 3 % of total | 11681 dpm | 0 % of total | 0 dpm | 100 % of total | 400045 dpm | <1 % of total | 11 dpm | 0 % of total | 0 dpm | – | – | – | – | – | – | – | % eluted from CM-Sephadex column following autoclaving [2]: 100% |
| [Cl][La]([Cl])[Cl] [Lanthanum chloride, reference compound] | – | – | – | – | – | – | – | – | – | – | – | – | – | 100% | 0 % of total | 0 dpm | 0 % of total | 0 dpm | 0 % of total | 0 dpm | % of total [1, 14]: 100 % of total; % of total [3, 15]: 49 % of total; dpm [3, 15]: 51651 dpm; % of total [3, 9]: 6 % of total; dpm [3, 9]: 6586 dpm; % of total [3, 10]: 44 % of total; dpm [3, 10]: 46450 dpm |
| [Cl][Eu]([Cl])[Cl] [Europium chloride, reference compound] | – | – | – | – | – | – | – | – | – | – | – | – | – | 100% | 0 % of total | 0 dpm | 0 % of total | 0 dpm | 0 % of total | 0 dpm | % of total [1, 14]: 100 % of total; dpm [1, 14]: 21244 dpm; % of total [3, 15]: 42 % of total; dpm [3, 15]: 2378 dpm; % of total [3, 9]: 5 % of total; dpm [3, 9]: 291 dpm; % of total [3, 10]: 52 % of total; dpm [3, 10]: 2940 dpm |
| [Cl][Sm]([Cl])[Cl] [Samarium chloride, reference compound] | – | – | – | – | – | – | – | – | – | – | – | – | – | 100% | 0 % of total | 0 dpm | 0 % of total | 0 dpm | 0 % of total | 0 dpm | % of total [1, 14]: 100 % of total; % of total [3, 15]: 48 % of total; dpm [3, 15]: 104992 dpm; % of total [3, 9]: 3 % of total; dpm [3, 9]: 5702 dpm; % of total [3, 10]: 49 % of total; dpm [3, 10]: 108299 dpm |
| [Cl][Gd]([Cl])[Cl] [Gadolinium chloride, reference compound] | – | – | – | – | – | – | – | – | – | – | – | – | – | 100% | 0 % of total | – | 0 % of total | – | 0 % of total | – | – |
| Technetium-99m-DTPA [^99mTc-DTPA, reference compound] | – | – | – | – | – | – | – | – | – | – | – | – | – | – | – | – | – | – | – | – | Percent of initial injection, blood ([4]; blood 10 min after i.v. injection): 85% of initial injection; Percent of initial injection, blood ([4]; blood 30 min): 63% of initial injection; Percent of initial injection, blood ([4]; blood 60 min): 30% of initial injection; Percent of initial injection, urine ([4]; urine 30 min): 25% of initial injection; Percent of initial injection, urine ([4]; urine 180 min): 92% of initial injection |

Second part, led by results:

| % eluted from the CM-Sephadex column [1] | % of total [1, 5] | dpm [1, 5] | % of total [1, 6] | dpm [1, 6] | % of total [1, 7] | dpm [1, 7] | % of total [2, 8] | dpm [2, 8] | % of total [2, 9] | dpm [2, 9] | % of total [2, 10] | dpm [2, 10] | Molecule | % of unchelated ion retained on the column [1] | % of total [1, 11] | dpm [1, 11] | % of total [1, 12] | dpm [1, 12] | % of total [1, 13] | dpm [1, 13] | also measured |
| --- | --- | --- | --- | --- | --- | --- | --- | --- | --- | --- | --- | --- | --- | --- | --- | --- | --- | --- | --- | --- | --- |
| 100% | 98 % of total | 1429326 dpm | 2 % of total | 28850 dpm | 0 % of total | 0 dpm | 98 % of total | 1439622 dpm | 2 % of total | 27521 dpm | 0 % of total | 0 dpm | O=C([O-])CN1CCN(CC(=O)[O-])CCN(CC(=O)[O-])CCN(CC(=O)[O-])CC1.[Sm+3] [Sm-DOTA] | – | – | – | – | – | – | – | stability to autoclaving [2]: unstable product producing a mixture of Sm-DOTA and unchelated Sm^+3 |
| 100% | 100 % of total | 391454 dpm | <1 % of total | 132 dpm | 0 % of total | 0 dpm | 100 % of total | 366651 dpm | <1 % of total | 1226 dpm | 0 % of total | 0 dpm | O=C([O-])CN1CCN(CC(=O)[O-])CCN(CC(=O)[O-])CCN(CC(=O)[O-])CC1.[Eu+3] [Eu-DOTA] | – | – | – | – | – | – | – | % eluted from CM-Sephadex column following autoclaving [2]: 100% |
